# Test results published in US8362050B2, “Compounds and methods for modulating G protein-coupled receptors” (IRM LLC, priority 2008, dated 2013).
# Read-outs that look alike come from different tables or passages of the source.
# Target: T1, Human GPR120 (Homo sapiens, UniProt Q5NUL3)
# T1 construct: Ga16 (promiscuous G protein) fusion partner; expressed in transfected cells
# T1 sequence (Q5NUL3 with tags, fused parts or gaps): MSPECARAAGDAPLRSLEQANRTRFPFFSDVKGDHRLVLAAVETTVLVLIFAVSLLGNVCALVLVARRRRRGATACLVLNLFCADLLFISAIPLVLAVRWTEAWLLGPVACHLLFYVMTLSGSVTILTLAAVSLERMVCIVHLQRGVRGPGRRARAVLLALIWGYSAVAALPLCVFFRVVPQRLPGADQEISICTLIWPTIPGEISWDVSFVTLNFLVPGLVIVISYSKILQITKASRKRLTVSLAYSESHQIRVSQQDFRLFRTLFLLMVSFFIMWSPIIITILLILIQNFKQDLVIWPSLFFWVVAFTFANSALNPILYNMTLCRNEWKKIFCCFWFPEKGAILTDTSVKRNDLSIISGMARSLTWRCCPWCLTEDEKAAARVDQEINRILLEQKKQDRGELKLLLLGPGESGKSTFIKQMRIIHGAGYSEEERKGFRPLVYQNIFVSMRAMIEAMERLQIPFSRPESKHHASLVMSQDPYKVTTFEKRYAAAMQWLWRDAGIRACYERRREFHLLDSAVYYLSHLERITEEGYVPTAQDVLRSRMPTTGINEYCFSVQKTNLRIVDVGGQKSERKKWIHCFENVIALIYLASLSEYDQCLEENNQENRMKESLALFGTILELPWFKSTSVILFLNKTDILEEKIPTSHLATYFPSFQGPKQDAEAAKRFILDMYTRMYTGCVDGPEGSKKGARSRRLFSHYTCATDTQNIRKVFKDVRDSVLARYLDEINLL
# Experiment: FLIPR assay: agonist-induced calcium mobilization in HEK293-GPR120-Ga16 cells
# Assay type: cell-based
# Conditions: for EC50: GPR120 activation, calcium mobilization, HEK293-GPR120-Ga16 cells; for Emax: % enhancement of the test compound relative to a known compound, read-out: % Efficiency
# Description: Human GPR120 stable cell-line was generated in HEK293 cells. GPR120 (Accession number BC101175) is fused to a promiscuous G protein, Ga16. The expression plasmid is transfected into HEK293 cells using Fugene6 following manufacturer's instruction. Stable cell-lines are generated following drug selection.
# FLIPR (Fluorimetric Imaging Plate Reader, Molecular Devices) assays are performed to measure agonist-induced calcium mobilization in the GPR120-expressing cells. One day before the FLIPR assay, HEK293-GPR120-Ga16 cells are seeded into poly-D-lysine coated black-wall-clear bottom 384 well plates (Falcon) at 25,000 cells per well in 40 μl DMEM supplemented with 1% of FBS. The cells are incubated overnight at 37° C. in a humidified incubator. The medium is aspirated on the day of the FLIPR assay. The cells are incubated with 50 μl/well of the assay buffer (HBSS, 20 mM HEPES, 2.5 mM probenecid, pH7.4) containing Fluo-4 NM dye (Invitrogen cat# F36205) at 37° C. for 45 minutes, and then equilibrated at room temperature for 30 minutes. Compounds are dissolved in DMSO and diluted to desired concentrations with assay buffer. Fluorescent output is measured immediately following compound addition (12.5 μl/well) on the FLIPR machine.
# An EC50 value was calculated using the change of fluorescent intensity from the reaction initiation. […] In some examples, compounds provided herein have EC50 values from 0.1 μM to 5 μM, while in other examples from 0.5 μM to 5 μM.
# The EC50 value in those experiments is given as that concentration of the test compound in question that provoke a response halfway between the baseline and maximum responses. In certain examples compounds of Formula (I) have EC50 values from 0.001 μM to 5 μM. In other examples, compounds of Formula (I) have EC50 values from 0.001 μM to 4 μM. In other examples, compounds of Formula (I) have EC50 values from 0.001 μM to 3 μM. In other examples, compounds of Formula (I) have EC50 values from 0.001 μM to 2 μM. In other examples, compounds of Formula (I) have EC50 values from 0.001 μM to 1 μM. In other examples, compounds of Formula (I) have EC50 values from 0.001 μM to 0.5 μM. […] In other examples, compounds of Formula (I) have EC50 values from 0.001 μM to 0.1 μM.
# The % efficiency in those experiments is given as that % enhancement of the test compound in question relative to a known compound. In certain examples compounds of Formula (I) have a % efficiency values from 50% to 150%. In other examples, compounds of Formula (I) have a % efficiency values from 55% to 150%. In other examples, compounds of Formula (I) have a % efficiency values from 60% to 150%. In other examples, compounds of Formula (I) have a % efficiency values from 65% to 150%. In other examples, compounds of Formula (I) have a % efficiency values from 70% to 150%. In other examples, compounds of Formula (I) have a % efficiency values from 75% to 150%. In other examples, compounds of Formula (I) have a % efficiency values from 80% to 150%. In other examples, compounds of Formula (I) have a % efficiency values from 85% to 150%. In other examples, compounds of Formula (I) have a % efficiency values from 90% to 150%. In other examples, compounds of Formula (I) have a % efficiency values from 95% to 150%. In other examples, compounds of Formula (I) have a % efficiency values from 100% to 150%.
smiles,measurement,setting,value
"CCn1c(-c2cccc(C#N)c2)cs/c1=N\c1ccc(S(=O)(=O)O)cc1 [Compound 1, (Z)-4-(4-(3-cyanophenyl)-3-ethylthiazol-2(3H)-ylideneamino)benzenesulfonic acid]",EC50,read-out: EC50 Range,500 to 1000 nM
CCn1c(-c2cc(C(F)(F)F)cc(C(F)(F)F)c2)cs/c1=N\c1ccc(S(=O)(=O)O)cc1 [Compound 2],Emax,,102%
same,EC50,read-out: EC50,396 nM
same,EC50,read-out: EC50 Range,250 to 500 nM
"CCn1c(-c2ccccc2)c(C)s/c1=N\c1ccc(S(=O)(=O)O)cc1 [Compound 3, (Z)-4-(3-ethyl-5-methyl-4-phenylthiazol-2(3H)-ylideneamino)benzenesulfonic acid]",Emax,,85.6%
same,EC50,read-out: EC50,547 nM
same,EC50,read-out: EC50 Range,500 to 1000 nM
"CCn1c(-c2cccc(F)c2)cs/c1=N\c1ccc(S(=O)(=O)O)cc1 [Compound 4, (Z)-4-(3-ethyl-4-(3-fluorophenyl)thiazol-2(3H)-ylideneamino)benzenesulfonic acid]",EC50,read-out: EC50 Range,250 to 500 nM
"CCn1c(-c2cccc(Br)c2)cs/c1=N\c1ccc(S(=O)(=O)O)cc1 [Compound 5, (Z)-4-(4-(3-bromophenyl)-3-ethylthiazol-2(3H)-ylideneamino)benzenesulfonic acid]",EC50,read-out: EC50 Range,100 to 250 nM
"CCn1c(-c2ccccc2OC(F)(F)F)cs/c1=N\c1ccc(S(=O)(=O)O)cc1 [Compound 6, (Z)-4-(3-ethyl-4-(2-(trifluoromethoxy)phenyl)thiazol-2(3H)-ylideneamino)benzenesulfonic acid]",Emax,,123%
same,EC50,read-out: EC50,541 nM
same,EC50,read-out: EC50 Range,500 to 1000 nM
"CCn1c(-c2cc(Cl)ccc2Cl)cs/c1=N\c1ccc(S(=O)(=O)O)cc1 [Compound 7, (Z)-4-(4-(2,5-dichlorophenyl)-3-ethylthiazol-2(3H)-ylideneamino)benzenesulfonic acid]",Emax,,124%
same,EC50,read-out: EC50,109 nM
same,EC50,read-out: EC50 Range,100 to 250 nM
"CCn1c(-c2ccccc2Oc2ccccc2)cs/c1=N\c1ccc(C(=O)O)cc1 [Compound 8, (Z)-4-(3-ethyl-4-(2-phenoxyphenyl)thiazol-2(3H)-ylideneamino)benzoic acid]",Emax,,88.1%
same,EC50,read-out: EC50,780 nM
same,EC50,read-out: EC50 Range,500 to 1000 nM
"CCn1c(-c2ccccc2)cs/c1=N\c1ccc(-c2nn[nH]n2)cc1 [Compound 9, (Z)-N-(3-ethyl-4-phenylthiazol-2(3H)-ylidene)-4-(2H-tetrazol-5-yl)aniline]",Emax,,98.4%
same,EC50,read-out: EC50,207 nM
same,EC50,read-out: EC50 Range,100 to 250 nM
"CCn1c(-c2ccccc2)cs/c1=N\c1ccc(C(=O)O)c(F)c1F [Compound 10, (Z)-4-(3-ethyl-4-phenylthiazol-2(3H)-ylideneamino)-2,3-difluorobenzoic acid]",Emax,,86.2%
same,EC50,read-out: EC50,485 nM
same,EC50,read-out: EC50 Range,250 to 500 nM
"CCn1c(-c2ccccc2C(F)(F)F)cs/c1=N\c1ccc(C(=O)O)cc1 [Compound 11, (Z)-4-(3-ethyl-4-(2-(trifluoromethyl)phenyl)thiazol-2(3H)-ylideneamino)benzoic acid]",EC50,read-out: EC50 Range,100 to 250 nM
"CCn1c(-c2ccccc2OC(F)(F)F)cs/c1=N\c1ccc(C(=O)O)cc1 [Compound 12, (Z)-4-(3-ethyl-4-(2-(trifluoromethoxy)phenyl)thiazol-2(3H)-ylideneamino)benzoic acid]",EC50,read-out: EC50 Range,250 to 500 nM
"CCn1c(-c2cccc(OC(F)(F)F)c2)cs/c1=N\c1ccc(C(=O)O)cc1 [Compound 13, (Z)-4-(3-ethyl-4-(3-(trifluoromethoxy)phenyl)thiazol-2(3H)-ylideneamino)benzoic acid]",EC50,read-out: EC50 Range,500 to 1000 nM
"CCn1c(-c2ccccc2)cs/c1=N\c1ccc(C(=O)O)c(F)c1 [Compound 14, (Z)-4-(3-ethyl-4-phenylthiazol-2(3H)-ylideneamino)-2-fluorobenzoic acid]",EC50,read-out: EC50 Range,100 to 250 nM
"CCn1c(-c2ccccc2)cs/c1=N\c1ccc(C(=O)O)c(Br)c1 [Compound 15, (Z)-2-bromo-4-(3-ethyl-4-phenylthiazol-2(3H)-ylideneamino)benzoic acid]",EC50,read-out: EC50 Range,100 to 250 nM
"CCCn1c(-c2ccccc2)cs/c1=N\c1ccc(C(=O)O)cc1 [Compound 16, (Z)-4-(4-phenyl-3-propylthiazol-2(3H)-ylideneamino)benzoic acid]",Emax,,96.9%
same,EC50,read-out: EC50,479 nM
same,EC50,read-out: EC50 Range,250 to 500 nM
"CC(C)n1c(-c2ccccc2)cs/c1=N\c1ccc(C(=O)O)cc1 [Compound 17, (Z)-4-(3-isopropyl-4-phenylthiazol-2(3H)-ylideneamino)benzoic acid]",EC50,read-out: EC50 Range,100 to 250 nM
"CCn1c(-c2cccc(O)c2)cs/c1=N\c1ccc(C(=O)O)cc1 [Compound 18, (Z)-4-(3-ethyl-4-(3-hydroxyphenyl)thiazol-2(3H)-ylideneamino)benzoic acid]",EC50,read-out: EC50 Range,250 to 500 nM
"CCn1c(-c2cc(O)ccc2Br)cs/c1=N\c1ccc(C(=O)O)cc1 [Compound 19, (Z)-4-(4-(2-bromo-5-hydroxyphenyl)-3-ethylthiazol-2(3H)-ylideneamino)benzoic acid]",Emax,,81.1%
same,EC50,read-out: EC50,628 nM
same,EC50,read-out: EC50 Range,500 to 1000 nM
"CCn1c(-c2cccc(OCCOC)c2)cs/c1=N\c1ccc(C(=O)O)cc1 [Compound 20, (Z)-4-(3-ethyl-4-(3-(2-methoxyethoxy)phenyl)thiazol-2(3H)-ylideneamino)benzoic acid]",Emax,,77.1%
same,EC50,read-out: EC50,119 nM
same,EC50,read-out: EC50 Range,100 to 250 nM
"O=C(O)c1ccc(/N=c2\scc(-c3ccccc3)n2CC2CC2)cc1 [Compound 21, (Z)-4-(3-(cyclopropylmethyl)-4-phenylthiazol-2(3H)-ylideneamino)benzoic acid]",Emax,,84.7%
same,EC50,read-out: EC50,446 nM
same,EC50,read-out: EC50 Range,250 to 500 nM
"CCC(C)n1c(-c2ccccc2)cs/c1=N\c1ccc(C(=O)O)cc1 (stereo not shown) [Compound 22, (Z)-4-(3-sec-butyl-4-phenylthiazol-2(3H)-ylideneamino)benzoic acid]",EC50,read-out: EC50 Range,500 to 1000 nM
"O=C(O)c1ccc(/N=c2\scc(-c3ccccc3)n2CC(F)F)cc1 [Compound 23, (Z)-4-(3-(2,2-difluoroethyl)-4-phenylthiazol-2(3H)-ylideneamino)benzoic acid]",EC50,read-out: EC50 Range,100 to 250 nM
"O=C(O)c1ccc(/N=c2\scc(-c3ccccc3)n2CC(F)(F)F)cc1 [Compound 24, (Z)-4-(4-phenyl-3-(2,2,2-trifluoroethyl)thiazol-2(3H)-ylideneamino)benzoic acid]",Emax,,71.2%
same,EC50,read-out: EC50,184 nM
same,EC50,read-out: EC50 Range,100 to 250 nM
"CCn1c(-c2ccccc2)cs/c1=N\c1c(F)c(F)c(C(=O)O)c(F)c1F [Compound 25, (Z)-4-(3-ethyl-4-phenylthiazol-2(3H)-ylideneamino)-2,3,5,6-tetrafluorobenzoic acid]",EC50,read-out: EC50 Range,250 to 500 nM
